Experimental data: PMC4826234, “Emodin potentiates the antiproliferative effect of interferon α/β by activation of JAK/STAT pathway signaling through inhibition of the 26S proteasome” (Oncotarget, 2015)

Experiments:
Format in all cases: biochemical
[1] = biological target: T1, 26S proteasome β2 subunit (trypsin-like activity) (Homo sapiens, UniProt Q99436); assay: peptidase assay of purified human […] proteasome with Ac-Arg-Leu-Arg-AMC
T1 construct: gene PSMB7; purified human 26S proteasome; with other subunits of the 26S proteasome
T1 sequence (Q99436 44-277): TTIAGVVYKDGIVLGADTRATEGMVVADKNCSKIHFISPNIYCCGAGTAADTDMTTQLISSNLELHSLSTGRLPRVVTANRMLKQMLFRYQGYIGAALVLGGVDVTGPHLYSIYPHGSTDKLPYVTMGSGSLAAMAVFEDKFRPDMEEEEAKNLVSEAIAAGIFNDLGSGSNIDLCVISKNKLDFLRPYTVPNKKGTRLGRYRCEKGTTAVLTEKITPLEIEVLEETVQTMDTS

[2] = biological target: T2, 26S proteasome β5 subunit (chymotrypsin-like activity) (Homo sapiens, UniProt P28074); assay: peptidase assay of purified human […] proteasome with Suc-Leu-Leu-Val-Tyr-AMC
T2 construct: gene PSMB5; purified human 26S proteasome; with other subunits of the 26S proteasome
T2 sequence (P28074 60-263): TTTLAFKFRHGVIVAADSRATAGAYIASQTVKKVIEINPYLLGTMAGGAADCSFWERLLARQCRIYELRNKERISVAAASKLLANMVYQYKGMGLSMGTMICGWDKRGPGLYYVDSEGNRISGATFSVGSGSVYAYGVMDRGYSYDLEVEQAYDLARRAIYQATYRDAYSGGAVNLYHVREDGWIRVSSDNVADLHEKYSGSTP

[3] = biological target: T3, 26S proteasome β1 subunit (caspase-like activity) (Homo sapiens, UniProt P28072); assay: peptidase assay of purified human […] proteasome with Z-Nle-Pro-Nle-Asp-aminoluciferin
T3 construct: gene PSMB6; purified human 26S proteasome; with other subunits of the 26S proteasome
T3 sequence (P28072 35-239): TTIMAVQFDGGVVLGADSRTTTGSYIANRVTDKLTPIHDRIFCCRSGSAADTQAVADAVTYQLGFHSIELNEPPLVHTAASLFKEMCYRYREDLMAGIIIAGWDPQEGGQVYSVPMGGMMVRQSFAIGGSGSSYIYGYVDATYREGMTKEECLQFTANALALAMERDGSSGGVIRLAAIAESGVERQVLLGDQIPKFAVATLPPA

## Cc1cc(O)c2c(c1)C(=O)c1cc(O)cc(O)c1C2=O [emodin, 1,3,8-trihydroxy-6-methylanthraquinone]
[1]
  IC50: 20800 nM
[2]
  IC50: 1220 nM
[3]
  IC50: 240 nM
